Measurements reported in US7202084B2, “Beta-alanine N-methyltransferase” (University of Florida Research Foundation, Inc., priority 2001, dated 2007).

Experiments:
L. latifolium NMTase [1] = biological target: T1, L. latifolium NMTase (Limonium latifolium, UniProt Q84N56); test: Kinetic characterization of NMTase, radiometric assay; assay type: biochemical
T1 sequence (Q84N56 1-375): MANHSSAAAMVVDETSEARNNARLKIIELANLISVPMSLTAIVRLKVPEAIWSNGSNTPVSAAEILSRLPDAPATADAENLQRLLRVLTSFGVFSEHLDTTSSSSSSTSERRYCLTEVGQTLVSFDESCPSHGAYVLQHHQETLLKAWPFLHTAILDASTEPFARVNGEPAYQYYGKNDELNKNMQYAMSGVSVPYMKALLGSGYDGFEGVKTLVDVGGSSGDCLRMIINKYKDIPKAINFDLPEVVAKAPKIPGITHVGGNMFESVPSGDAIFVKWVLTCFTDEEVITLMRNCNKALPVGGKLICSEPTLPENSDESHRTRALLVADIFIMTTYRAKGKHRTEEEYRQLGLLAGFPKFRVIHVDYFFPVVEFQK
Protocol: Enzyme Assay. […] Following incubation at 30° C. for 30 minutes, the reactions were stopped by the addition of 10 μL of 10% (w/v) trichloroacetic acid containing 1 mM of methylated products as unlabeled carrier. Activated charcoal (38 mg.ml^-1) in 0.1 N acetic acid, 250 μL per assay, was added and centrifuged for five minutes. The radioactive product in the supernatant was quantified in 75% Ready Gel using a liquid scintillation counter (Beckman Instruments, Fullerton, Calif.). […] Kinetic Characterization. […] Kinetic constants were derived from the X and Y intercepts of a linear plot of s/v versus s drawn from triplicate assay results. Henderson, P J F (1993) Statistical analysis of enzyme kinetic data. In […]., Enzyme assays a practical approach, IRL Press, Oxford, pp. 276-316.

L. latifolium NMTase [2] = biological target: T1, L. latifolium NMTase; test: Effect of a thiol reagent on NMTase activities; assay type: biochemical; conditions: for % Activity DM: N,N-dimethyl β-alanine as methyl acceptor; for % Activity DM / % Activity MM / % Activity BA: mean ± SE, n=3; for % Activity MM: N-methyl β-alanine as methyl acceptor; for % Activity BA: β-alanine as methyl acceptor
Protocol: Enzyme Assay. […] The assay mixture contained 54 μL of enzyme preparation in a total volume of 100 μL containing 0.1 M Tris-HCl buffer pH 8.0, 2 mM DTT, 10 mM methyl acceptor, 100 μM AdoMet and 0.027 μM S-Adenosyl-L-[methyl-^3H]Met (200 nCi of radioactivity). Following incubation at 30° C. for 30 minutes, the reactions were stopped by the addition of 10 μL of 10% (w/v) trichloroacetic acid containing 1 mM of methylated products as unlabeled carrier. Activated charcoal (38 mg.ml^−1) in 0.1 N acetic acid, 250 μL per assay, was added and centrifuged for five minutes. The radioactive product in the supernatant was quantified in 75% Ready Gel using a liquid scintillation counter (Beckman Instruments, Fullerton, Calif.). The counting efficiency was 30%.
Effect of a Thiol Reagent. Protein purified using PEG precipitation was assayed with or without added DTT in the presence and absence of the thiol reagent p-hydroxymercuribenzoic acid.

[3] = 0.2 mM pHMB 10 min + 5 mM DTT for 30 min, relative to control
[4] = Minus DTT plus 0.2 mM pHMB, relative to control with 5 mM DTT

## C[S+](CC[C@H](N)C(=O)[O-])C[C@H]1O[C@@H](n2cnc3c(N)ncnc32)[C@H](O)[C@@H]1O (stereo partly drawn) [Ado-Met, S-adenosyl-L-methionine]
L. latifolium NMTase [1]; at 10 mM β-alanine
  Concentration above which substrate inhibition was exhibited: above 200 μM

## Nc1ncnc2c1ncn2[C@@H]1O[C@H](CSCC[C@H](N)C(=O)O)[C@@H](O)[C@H]1O [AdoHCy, S-adenosyl-L-homocysteine]
L. latifolium NMTase [1]
  Inhibition of NMTase (in words): highly inhibitory
L. latifolium NMTase [1]; read-out: Concentration giving 50% inhibition of NMTase, 10 mM β-alanine and 100 μM Ado-Met
  IC50: 40 µM

## O=C(O)c1cc[c]([Hg+])cc1.[OH-] [pHMB, p-hydroxymercuribenzoate]
L. latifolium NMTase [2]
  Inhibition of NMTase (in words): highly inhibited
  Reversibility of the inhibition by DTT: partially reversible
L. latifolium NMTase [2]; [3]
  % Activity DM: 55.2 ± 7.6%
  % Activity MM: 23.0 ± 2.9%
  % Activity BA: 22.6 ± 2.9%
L. latifolium NMTase [2]; [4]
  % Activity DM: 0.4 ± 0.2%
  % Activity MM: 2.4 ± 1.4%
  % Activity BA: 1.3 ± 0.7%
